Measured values from patent publication US11618880B2, “Compositions comprising bacterial strains and use thereof in controlling pathogenic microorganisms” (Better Air International Limited, priority 2018, dated 2023).

Key:
Test in all cases: Agar well diffusion assay, antagonism of molds
Format in all cases: cell-based
Settings in all cases: PDA plates, 25° C. 72 hours
[1] = system: Alternaria alternata (Fries) Keissler (ATCC MYA-4642)
Description: (§1) The agar well diffusion assay was performed to evaluate the antagonistic activity of B. amyloliquefaciens 298 against the growth of pathogenic bacteria including Escherichia coli ATCC 22922, Pseudomonas aeruginosa, B. cereus ATCC 27348, Staphylococcus aureus ATCC 11335, Salmonella Typhimurium ATCC 14028 and Listeria innocua ATCC 3586. […] Brain Heart Infusion (BHI) Agar was used for the antagonism against pathogenic microorganisms while the Potato Dextrose Agar (PDA) was used for evaluation against molds. Reference pathogens were prepared using BHI broth at 37° C. for 18 hours while B. amyloliquefaciens 298 was grown using LB broth at 37° C. for 18 hours. Molds were prepared using PDA at 25° C. with 85% HR for 7 days. Mold spores, pathogens and B. amyloliquefaciens 298 were harvested and resuspended in PBS. Pathogens and B. amyloliquefaciens 298 were adjusted to an optical density of 0.2 and 100 uL of pathogen suspended in PBS was spread on BHI agar plates. The same amount of mold spore suspension was inoculated on PDA. Wells were made in all the plates and 20 μL of B. amyloliquefaciens 298 suspensions were inoculated in the wells while the BHI plates were incubated at 37° C. for 24 hours and PDA plates at 25° C. for 72 hours.

[2] = system: Cladosporium sphaerospermum Penzig (ATCC MYA-4645)
Description: as §1

[3] = system: Penicillium chrysogenum Thom (ATCC MYA-4644)
Description: as §1

## OO [Hydrogen peroxide 10%, hydrogen peroxide]
[1]
  Inhibition zone, Alternaria alternata (Fries) Keissler (ATCC MYA-4642): 8 mm
[2]
  Inhibition zone, Cladosporium sphaerospermum Penzig (ATCC MYA-4645): 12 mm
[3]
  Inhibition zone, Penicillium chrysogenum Thom (ATCC MYA-4644): 10 mm
